Measurements as given in patent US20150276760A1, “Method for Screening a Compound Capable of Inhibiting the Notch1 Transcriptional Activity” (INSERM (institut National de la Sante et de la Recherche …, priority 2012, published 2015).

Experiments:
[1] = test system: ICN1-binding sites of Notch-target genes; test: Chromatin immunoprecipitation (ChIP) in SupT1 cells; format: cell-based, human
Method: For ChIP experiments, 6×10^7 cells were cross-linked for 10 min with 1% formaldehyde (sigma) at room temperature. The cross-linking reaction was stopped by adding glycine to a final concentration of 0.125 M for 10 min at room temperature. Cells were washed twice with cold PBS and incubated on ice for 7 min in 2 mL of buffer containing 15 mM Tris-HCl (pH 7.4), 0.3 M sucrose (sigma), 60 mM KCl, 15 mM NaCl, 5 mM MgCl2, 0.1 mM EGTA and 0.1% NP-40. Each cell suspension was then layered over 8 mL sucrose cushion (15 mM Tris-HCl, 1.2 M sucrose, 60 mM KCl, 15 mM NaCl, 5 mM MgCl2 and 0.1 mM EGTA) and centrifuged at 10.000 g for 20 min at 4° C. Nuclear pellet was lysed with 1 mL lysis buffer (50 mM Tris-HCl pH 8, 10 mM EDTA, 1% SDS) complemented with Protease Inhibitor Cocktail (Roche). Chromatin was sonicated to generate DNA-fragments of approximately 300 to 500 bp in an ultra sonicator water bath (Bioruptor, Diagenode) using ten cycles of 30 s/on and 30 s/off. After centrifugation at 13.000 g for 20 min, an aliquot of sonicated DNA was reverse-crosslinked by addition of 250 mM NaCl and incubation at 65° C. for 6 h. DNA was extracted by phenol-chloroform, quantified using nanodrop and run on a 1% agarose gel to confirm DNA fragment size. The antibodies were pre-bound to Invitogen Dynal magnetic beads (Protein A or G beads) in PBS containing BSA (5 mg/mL) and chromatin was pre-cleared with beads for 4 h at 4° C. Immunoprecipitation was performed using 20 μg of chromatin and 2-3 μg of antibody coupled to 15 μL of beads in ChIP buffer (20 mM Tri-HCl pH 8, 150 mM NaCl, 2 mM EDTA, and 1% Triton X-100) complemented with Protease Inhibitor Cocktail. After overnight incubation at 4° C., beads were washed 4 times with wash buffer 1 (20 mM Tri-HCl pH 8, 150 mM NaCl, 2 mM EDTA, 1% Triton X-100 and 0.1% SDS) and 4 times with wash buffer 2 (20 mM Tri-HCl pH 8, 500 mM NaCl, 2 mM EDTA, 1% Triton X-100 and 0.1% SDS) using the DynaMag-2 magnet (Invitogen). Elution of immunoprecipitated DNA was performed in buffer containing 1% SDS and 100 mM NaHCO3. Crosslinking was reversed by incubation at 65° C. and proteins were degraded by addition of proteinase K (Sigma). Eluted DNA and 10% of input DNA were purified using phenol-chloroform extraction followed by isopropanol precipitation or using QIAquick PCR purification (Qiagen), according to the manufacturer instructions. Resultant DNA was dissolved in 60 μL of water containing 10 mM Tris-HCl pH 8. […] PCR measurements were performed in duplicate.

[2] = test system: Notch-target genes in pre-T cells; test: ChIP in T-cell precursors from in vitro T-cell differentiation; format: cell-based, human; conditions: GSI 5 μM, 2 days
Method: For ChIP experiments, 6×10^7 cells were cross-linked for 10 min with 1% formaldehyde (sigma) at room temperature. The cross-linking reaction was stopped by adding glycine to a final concentration of 0.125 M for 10 min at room temperature. Cells were washed twice with cold PBS and incubated on ice for 7 min in 2 mL of buffer containing 15 mM Tris-HCl (pH 7.4), 0.3 M sucrose (sigma), 60 mM KCl, 15 mM NaCl, 5 mM MgCl2, 0.1 mM EGTA and 0.1% NP-40. Each cell suspension was then layered over 8 mL sucrose cushion (15 mM Tris-HCl, 1.2 M sucrose, 60 mM KCl, 15 mM NaCl, 5 mM MgCl2 and 0.1 mM EGTA) and centrifuged at 10.000 g for 20 min at 4° C. Nuclear pellet was lysed with 1 mL lysis buffer (50 mM Tris-HCl pH 8, 10 mM EDTA, 1% SDS) complemented with Protease Inhibitor Cocktail (Roche). […] DNA was extracted by phenol-chloroform, quantified using nanodrop and run on a 1% agarose gel to confirm DNA fragment size. […]
CD34+ cells from human umbilical cord blood samples were sorted (Stemcell technologies) (≧95% purity) and cultured on OP9-DL1 stromal cells in αMEM media containing FLT3L (5 ng/ml), and IL7 (5 ng/ml) for 16 days. At day 16, most progenitors (˜90%) were engaged to the T-cell lineage (pre-T cells) as determined by the expression of CD5 and CD1a. pre-T-cells were cultured for 2 additional days on OP9-DL1 cells in presence or absence of GSI (5 μM).

[3] = test system: Notch-activation complex (ICN1-CSL-MAML1); test: Immunopurification / coimmunoprecipitation from SupT1 nuclear extracts (western blot); parameters: species or system human
Method: After two step affinity chromatography, protein complexes containing both tagged-proteins were peptide eluted and analyzed by western blot. For endogenous protein immunoprecipitations, nuclear extracts (500 μg-1 mg) were incubated with antibodies (1-2 μg) for 4 hr, followed by addition of 10 μL protein G Sepharose beads (Fast flow, Sigma) for 45 min before washing five times with 800 μL of buffer B015 in spin columns (Pierce).
Cells were lysed in lysis buffer (50 mM Tris-HCl, 120 mM NaCl, 5 mM EDTA, 0.5% NP-40 and PMSF) and briefly sonicated. Cell lysates and immunoprecipitates were boiled in SDS sample buffer and resolved on a 7% SDS-PAGE gel (Biorad). Proteins were liquid-transferred (Biorad) to nitrocellulose membrane in transfer buffer (20% methanol, 25 mM Tris, 192 mM Glycine, 0.037% SDS) during 90 min at 100V.

[4] = test system: Notch-target genes in T-ALL cells; test: Notch-target gene expression in T-ALL cell lines (Q-RT-PCR)
T-ALL cell lines = test: Flow-cytometric cell cycle analysis of T-ALL cell lines; format: cell-based, human; conditions: shRNA knockdown
Method: (§1) The following antibodies were used for flow cytometry: CD127-PE clone R34.34 and the IgG1-PE (from Beckman Coulter). Flow cytometry was performed on a BD FACSCalibur or MACSQUANT cytometer (Miltenyi). For cell proliferation assays, cells were plated at 2×10^5/mL in triplicate. Proliferation of shRNA-transduced T-ALL cells was followed by cell counting using the MACSQUANT cytometer (gated on live cells). Flow-cytometric cell cycle analysis was performed by staining DNA content of T-ALL cell lines using DAPI. SupT1 cells were also analyzed with EdU-DAPI staining to precisely define the percentage of cells at the G0/G1 phase. […] Cells were washed with PBS and fixed with PBS-4% PFA for 10 minutes at room temperature. After permeabilization, EdU incorporation was detected following the manufacturer's instructions (Click-iT, invitrogen) and total DNA content was measured using DAPI.

[5] = test system: SupT1, HPB-ALL, TALL1 and DND41; test: Cell count proliferation assay of T-ALL cell lines; format: cell-based, human; conditions: shRNA knockdown
Method: as §1

SupT1 xenograft tumor = test: Subcutaneous xenograft tumor model; format: in vivo; conditions: SupT1 cells expressing shRNA, SCID mice
Method: Female SCID mice (C.B.-17/IcrHan™Hsd-Prkdcscid) were obtained from Harlan Laboratories (Gannat, France). Animals were maintained in specific pathogen-free animal housing at the Center for Exploration and Experimental Functional Research (CERFE, Evry, France) animal facility. […] 72 hours post-infection, cells were selected with 2 μg/mL puromycin for 72 hours. At this point, the cells were maintained in fresh media for 2 days prior to injection into animals. Prior injection, cells were washed and resuspended in DMEM: 50% Matrigel (BD Pharmingen). 5×10^6 cells […] were injected to each mouse by subcutaneous route in the right flank (n=5 per group). Tumor volume was evaluated by measuring tumor diameters, with a calliper, three times a week during the follow-up period (23 days). The formula TV (mm^3)=[length (mm)×width (mm)2]/2 was used, where the length and the width are the longest and the shortest diameters of the tumor, respectively.

[6] = test system: HES1, HEY1 and DTX1 expression in U937 cells; test: Notch-target gene expression in U937 cells without Notch activation (Q-RT-PCR); conditions: TCP 1 mM, S2101 30 μM
[7] = test system: Notch-induced HES1 transcription in U937 cells; test: Ligand (Delta-like 4)-mediated HES1 activation in U937 cells; conditions: recombinant DL-4 Notch ligand
[8] = test system: ICN1-induced activation of p6XCBS-luc; test: Notch-responsive reporter assay (p6XCBS-luc) in HeLa cells; format: cell-based
Method: HeLa cells were co-transfected with 1 μg of a Notch-responsive firefly luciferase reporter containing 6 CSL-binding sites (p6XCBS-luc), 100 ng of TK-Renilla-luciferase vector (transfection control) and various amount (0.1-0.3-1 μg) of the MigR1-ICN1 expression vector. Transfections were performed in 6-wells plates using JetPEI reagent (Polyplus) according to manufacturer's instruction. Firefly luciferase activity was measured 24 hours post-transfection and normalized to Renilla luciferase expression. The values in the figures are Relative Luciferase Units (RLU) represented as fold induction over the luciferase activity measured in the absence of ICN1 (cells transfected with p6XCBS-luc and an empty vector).

monoamine oxidases = conditions: compared with TCP; cited from earlier work
[9] = test system: Notch-responsive genes in SupT1 cells; test: Notch-responsive gene expression in GSI-treated SupT1 cells

Question: With `C[C@H](NC(=O)Cc1cc(F)cc(F)c1)C(=O)N[C@H]1N=C(c2ccccc2)c2ccccc2N(C)C1=O` [GSI] as the compound, how does the “H3K27me2 mark at IL7R and DTX1 loci” value ([1]; SupT1) read?
Answer: Its value is “increase”.

Question: And the “CSL and LSD1 binding” value ([1]; SupT1, ICN1-binding sites)?
Answer: Its value is “did not significantly affect”.

Question: And the “ICN1 and MAML1 on chromatin” value ([1]; SupT1, ICN1-binding sites)?
Answer: The value was “released”.

Question: And the “recruitment of PBAF, PHF8 and AF4p12” value ([1]; SupT1, ICN1-binding sites)?
Answer: Its value is “reduced”.

Question: And the “RNAPII recruitment to Notch-target genes” value [2]?
Answer: The value was “impaired”.

Question: What about the “MAML1 association with CSL, LSD1, PB1 and BRG1” value ([3]; SupT1, GSI 500 nM, 8 hours) of the same compound?
Answer: Its value is “severely altered”.

Question: What about the “binding of PHF8 and AF4p12 to MAML1” value ([3]; SupT1, GSI 500 nM, 8 hours) of the same compound?
Answer: Its value is “only marginally reduced”.

Question: What about the “LSD1 binding to endogenous MAML1 and ICN1” value ([3]; SupT1 cells treated with DMSO or GSI) of the same compound?
Answer: Its value is “strongly reduced”.

Question: With “PHF8 shRNA: shRNA targeting PHF8, SEQ ID NO: 1; pSUPER retroviral vector (GCTTCATGATCGAGTGTGACA)” as the compound, how does the “Notch-mediated expression of c-MYC” value ([4]; shRNA knockdown) read?
Answer: Its value is “suppressed”.

Question: What about the “cell-cycle progression in MOLT4 and H9” value (T-ALL cell lines; Notch-independent T-ALL cell lines) of the same compound?
Answer: Its value is “did not significantly affect”.

Question: What about the “cell cycle in NOTCH1-dependent T-ALL cells” value (T-ALL cell lines) of the same compound?
Answer: Its value is “G0/G1 cell-cycle arrest”.

Question: What about the proliferation [5] of the same compound?
Answer: The proliferation was “marked reduction”.

Question: And the tumor establishment (SupT1 xenograft tumor)?
Answer: Its tumor establishment is “did not establish tumors”.

Question: With `N[C@@H]1C[C@H]1c1ccccc1` (racemic) [TCP, tranylcypromine] as the compound, how does the “HES1, HEY1 and DTX1 expression” value [6] read?
Answer: Its value is “increased”.

Question: What about the “Notch-induced HES1 activation” value [7] of the same compound?
Answer: Its value is “reduced HES1 activation”.

Question: And the “ICN1-induced activation of the Notch-responsive reporter (p6XCBS-luc)” value [8]?
Answer: Its value is “impaired”.

Question: Which “Notch-target genes expression on LSD1 inhibitor treatment” value [4] does the source give for `NC1CC1c1cc(F)cc(F)c1OCc1ccccc1` (stereo not shown) [S2101] here?
Answer: The value was “dose-dependent repression”.

Question: And the “effect on monoamine oxidases” value (monoamine oxidases)?
Answer: The value was “much weaker effect”.

Question: And the “HES1, HEY1 and DTX1 expression” value [6]?
Answer: The value was “increased”.

Question: And the “Notch-induced HES1 activation” value [7]?
Answer: The value was “reduced HES1 activation”.

Question: What about the “expression of Notch-responsive genes” value [9] of the same compound?
Answer: The value was “depression of Notch-responsive genes”.

Question: What about the “expression of the control S14 gene” value [9] of the same compound?
Answer: The value was “not affected”.
